In one assay the target is T1, AtITPK1 (Arabidopsis thaliana, UniProt Q9SBA5).
T1 construct: gene ITPK1; His tag with 3C cleavage implied
T1 sequence (Q9SBA5 1-319): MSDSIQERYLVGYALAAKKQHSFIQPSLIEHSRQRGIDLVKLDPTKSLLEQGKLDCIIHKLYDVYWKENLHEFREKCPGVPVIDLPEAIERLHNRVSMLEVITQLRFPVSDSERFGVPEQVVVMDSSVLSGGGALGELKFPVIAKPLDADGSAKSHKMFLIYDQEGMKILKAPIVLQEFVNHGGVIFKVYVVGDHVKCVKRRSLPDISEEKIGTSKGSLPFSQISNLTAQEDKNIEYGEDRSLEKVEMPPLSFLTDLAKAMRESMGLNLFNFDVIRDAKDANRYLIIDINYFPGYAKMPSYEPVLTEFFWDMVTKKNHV
In words: phosphate release assay. As to conditions: 1 mM ATP; 10 µM enzyme; no inositol phosphate. The assay is classed as biochemical.

In another assay the target is T2, AtITPK4 (Arabidopsis thaliana, UniProt O80568).
T2 construct: gene ITPK4; full-length; pOPINE, non-cleavable C-terminal 6xHis tag kept; Ni-NTA purified; HAD-like domain 1-150, ATP-grasp kinase domain from 151; no evidence of homo-oligomers
In words: HPLC kinase assay, substrate inhibition fit. As to conditions: 1 mM Ins(1,4,6)P3; ATP 0-5 mM; 6 mM MgCl2; 20 mM HEPES pH 7.3; 25 °C; 3 µM enzyme; substrate inhibition at high ATP. The assay is classed as biochemical.

T2 sequence (O80568 whole entry, the tested form may be a part): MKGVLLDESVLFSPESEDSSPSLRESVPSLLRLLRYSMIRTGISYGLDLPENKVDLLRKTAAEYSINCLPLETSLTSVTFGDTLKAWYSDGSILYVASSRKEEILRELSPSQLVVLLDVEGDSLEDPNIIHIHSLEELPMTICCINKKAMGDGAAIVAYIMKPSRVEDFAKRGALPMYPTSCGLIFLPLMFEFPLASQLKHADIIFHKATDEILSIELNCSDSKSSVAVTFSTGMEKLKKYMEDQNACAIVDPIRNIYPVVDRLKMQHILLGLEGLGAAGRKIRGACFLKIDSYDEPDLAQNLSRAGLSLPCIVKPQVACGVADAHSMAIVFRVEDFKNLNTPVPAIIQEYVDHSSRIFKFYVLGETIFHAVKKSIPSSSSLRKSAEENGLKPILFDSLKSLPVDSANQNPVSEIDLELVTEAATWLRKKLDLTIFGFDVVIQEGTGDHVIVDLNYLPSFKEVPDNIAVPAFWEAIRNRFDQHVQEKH

As to `Nc1ncnc2c1ncn2[C@@H]1O[C@H](COP(=O)(O)OP(=O)(O)OP(=O)(O)O)[C@@H](O)[C@H]1O` [ATP], the phosphate release assay result on AtITPK1 is “AtITPK1 showed much greater phosphate release from ATP in the absence of inositol phosphate substrate”. Moreover, at AtITPK4, the Ki was determined as 3.3 mM.

(Values after PMC7614388, “Diversification in the inositol tris/tetrakisphosphate kinase (ITPK) family: crystal structure and enzymology of the outlier AtITPK4” (Biochemical Journal, 2023).)
